Data published in US4103011A, “Novel penicillin compounds and process for preparation thereof” (priority 1976, dated 1978).
Where a name gives a salt, the structure may show the parent alone. Read-outs that look alike come from different tables or passages of the source.

Legend:
[1] = system: Corynebacterium pyogenes C-21; assay: In vitro antibacterial activity (MIC); format: cell-based; conditions: Rhodococcus (subgen. Prescottella) equi, C21; Corynebacterium pyogenes C-21; read-out: minimum inhibitory concentration (MIC)
Source text: (§1) In vitro antibacterial activity against 20 strains of bacteria
(§2) The numerals in the table show minimum inhibitory concentrations (MIC)

[2] = system: Enterobacter cloacae P-2540; assay: In vitro antibacterial activity (MIC); format: cell-based
Source text: as §1, §2

[3] = system: Escherichia coli NIHJ JC-2; assay: In vitro antibacterial activity (MIC); format: cell-based
Source text: as §1, §2

Escherichia coli P-140a = assay: In vitro antibacterial activity (MIC); format: cell-based
Source text: as §1, §2

Escherichia coli P-5101 [4] = assay: In vitro antibacterial activity (MIC); format: cell-based; conditions: Escherichia coli, P5101, read-out: minimum inhibitory concentration (MIC)
Source text: as §1, §2

[5] = system: Klebsiella pneumoniae No. 13; assay: In vitro antibacterial activity (MIC); format: cell-based; conditions: Klebsiella pneumoniae No. 13; read-out: minimum inhibitory concentration (MIC)
Source text: as §1, §2

Proteus mirabilis P-2381 = assay: In vitro antibacterial activity (MIC); format: cell-based
Source text: as §1, §2

Proteus morganii Kono = assay: In vitro antibacterial activity (MIC); format: cell-based; conditions: Morganella morganii, read-out: minimum inhibitory concentration (MIC)
Source text: as §1, §2

Proteus rettgeri P-2503 = assay: In vitro antibacterial activity (MIC); format: cell-based; conditions: Providencia rettgeri
Source text: as §1, §2

[6] = system: Pseudomonas aeruginosa No.12; assay: In vitro antibacterial activity (MIC); format: cell-based
Source text: as §1, §2

[7] = system: Pseudomonas aeruginosa Tsuchijima; assay: In vitro antibacterial activity (MIC); format: cell-based; conditions: Pseudomonas aeruginosa Tsuchijima; read-out: minimum inhibitory concentration (MIC)
Source text: as §1, §2

[8] = system: Salmonella enteritidis No. 1891; assay: In vitro antibacterial activity (MIC); format: cell-based; conditions: Salmonella enterica; Salmonella enteritidis No. 1891; read-out: minimum inhibitory concentration (MIC)
Source text: as §1, §2

[9] = system: Salmonella typhimurium S-9; assay: In vitro antibacterial activity (MIC); format: cell-based; conditions: Salmonella enterica; Salmonella typhimurium S-9; read-out: minimum inhibitory concentration (MIC)
Source text: as §1, §2

[10] = system: Serratia mercescens IFO 3736; assay: In vitro antibacterial activity (MIC); format: cell-based
Source text: as §1, §2

Shigella flexneri 2a = assay: In vitro antibacterial activity (MIC); format: cell-based; conditions: read-out: minimum inhibitory concentration (MIC)
Source text: as §1, §2

[11] = system: Shigella flexneri 4a P-330; assay: In vitro antibacterial activity (MIC); format: cell-based; conditions: 4AP330, read-out: minimum inhibitory concentration (MIC)
Source text: as §1, §2

[12] = system: Staphylococcus aureus 209P JC-1; assay: In vitro antibacterial activity (MIC); format: cell-based; conditions: Staphylococcus aureus 209P JC-1; read-out: minimum inhibitory concentration (MIC)
Source text: as §1, §2

[13] = system: Staphylococcus aureus No. 50774; assay: In vitro antibacterial activity (MIC); format: cell-based; conditions: Staphylococcus aureus No. 50774; read-out: minimum inhibitory concentration (MIC)
Source text: as §1, §2

[14] = system: Streptococcus faecalis P-2473; assay: In vitro antibacterial activity (MIC); format: cell-based; conditions: Enterococcus faecalis, P2473; Streptococcus faecalis P-2473; read-out: minimum inhibitory concentration (MIC)
Source text: as §1, §2

[15] = system: Streptococcus pyogenes 65A; assay: In vitro antibacterial activity (MIC); format: cell-based; conditions: Streptococcus pyogenes 65A; read-out: minimum inhibitory concentration (MIC)
Source text: as §1, §2

[16] = system: Staphylococcus aureus No. 50774; assay: In vivo efficacy against systemic infection; design: species or system male mice (ddY); conditions: NO.50774, in Mus musculus, 336 h, sc, twice, about 5 minutes and 6 hours after infection, read-out: ED50 (median effective dose)
Description: (§3) The contents in the vials (No. A and No. C) prepared in Example 17 were each dissolved in deionized water, and injections having various concentrations were prepared.
(§4) Compounds A, B, F, G, H and M were dissolved in deionized water. Compounds C, D, E and J were dissolved in an aqueous solution of sodium carbonate (pH 8-9) to prepare injections of various concentrations.
(§5) Each of the injections was administered to mice under the conditions described below, and the median effective doses (ED50) obtained are shown in Table II.
(§6) Mice: male mice (ddY) weighting about 20g
Staphylococcus aureus No. 50774;
Intravenous infection with 50 to 100
LD50 (about 5 × 10^8cells/mouse) of a
bacterial suspension in saline.
(§7) twice, about 5 minutes and 6 hours after
Staphylococcus aureus No. 50774 14 days
The numerals in the table show ED50 (mg/kg). ED50 values were
(§8) calculated in accordance with the Behrens-Kaerber method [Arch. Exp. Path

Escherichia coli P-5101 [17] = assay: In vivo efficacy against systemic infection; design: species or system male mice (ddY); conditions: P5101, in Mus musculus, 168 h, twice, about 5 minutes and 6 hours after infection, read-out: ED50 (median effective dose)
Description: as §3
(§9) Compounds A, B, F, G, H and M were dissolved in deionized water.
as §6
(§10) Intraperitoneal infection with 50 to
(§11) of a bacterial suspension in tryptosoy
as §7, §8

[18] = system: Pseudomonas aeruginosa No. 12; assay: In vivo efficacy against systemic infection; design: species or system male mice (ddY); conditions: NO.12, in Mus musculus, twice, about 5 minutes and 6 hours after infection, read-out: ED50 (median effective dose)
Description: as §3, §9, §6
Pseudomonas aeruginosa No. 12;
as §10, §11, §7
Pseudomonas aeruginosa No. 12
as §8

[19] = system: bacteria (systemic infection); assay: In vivo efficacy against systemic infection, overall conclusions; design: species or system male mice (ddY); conditions: Table II
Description: as §3, §4, §5

in vivo = conditions: mouse
20 strains of bacteria = assay: In vitro antibacterial activity, overall conclusions; format: cell-based
Source text: as §1

[20] = Escherichia coli, NIHJJC2, read-out: minimum inhibitory concentration (MIC)
[21] = Proteus mirabilis, P2381, read-out: minimum inhibitory concentration (MIC)
[22] = Pseudomonas aeruginosa, NO.12, read-out: minimum inhibitory concentration (MIC)
[23] = IFO3736, Serratia mercescens IFO 3736, read-out: minimum inhibitory concentration (MIC)
[24] = P2540, Enterobacter cloacae P-2540, read-out: minimum inhibitory concentration (MIC)
[25] = P2503, Proteus rettgeri P-2503, read-out: minimum inhibitory concentration (MIC)

Compound: CC1(C)S[C@@H]2[C@H](NC(=O)[C@H](NC(=O)c3c[nH]c4nc(N)ncc4c3=O)c3ccc(O)cc3)C(=O)N2[C@H]1C(=O)O [Compound G, D-α-(5,8-Dihydro-2-amino-5-oxopyrido[2,3-d]pyrimidine-6-carboxamido)-p-hydroxybenzylpenicillin sodium salt]
- MIC [1]: 0.78 µg/mL
- MIC ([2]; Enterobacter cloacae, P2540, read-out: minimum inhibitory concentration (MIC)): 6.25 µg/mL
- MIC [3, 20]: 6.25 µg/mL
- minimum inhibitory concentration (MIC) (Escherichia coli P-140a): 50 µg/mL
- MIC (Escherichia coli P-5101 [4]): 3.13 µg/mL
- MIC [5]: 25 µg/mL
- MIC (Proteus mirabilis P-2381; [21]): 3.13 µg/mL
- MIC (Proteus morganii Kono): 6.25 µg/mL
- MIC (Proteus rettgeri P-2503; P2503, read-out: minimum inhibitory concentration (MIC)): 6.25 µg/mL
- MIC [6, 22]: 3.13 µg/mL
- MIC [7]: 0.39 µg/mL
- MIC [8]: 0.78 µg/mL
- MIC [9]: 1.56 µg/mL
- MIC [10, 23]: 12.5 µg/mL
- MIC (Shigella flexneri 2a): 3.13 µg/mL
- MIC [11]: 6.25 µg/mL
- MIC [12]: 0.39 µg/mL
- MIC [13]: 0.39 µg/mL
- MIC [14]: 1.56 µg/mL
- MIC [15]: < 0.1 µg/mL
- ED50 [16]: ~0.8 mg/kg
- ED50 (Escherichia coli P-5101 [17]; iv): 8.8 mg/kg
- ED50 (Escherichia coli P-5101 [17]; sc): 11.5 mg/kg
- ED50 ([18]; iv): 3.9 mg/kg
- ED50 ([18]; sc): 4.4 mg/kg
- antibacterial activity in vivo (in words) [19]: almost comparable
- LD50 at 168 h (in vivo; iv): 1000 mg/kg
- selectivity ratio (in vivo; iv): 256
- LD50 at 168 h (in vivo; sc): 1000 mg/kg
- selectivity ratio (in vivo; sc): 227

Compound: CNc1ncc2c(=O)c(C(=O)N[C@@H](C(=O)N[C@@H]3C(=O)N4[C@@H]3SC(C)(C)[C@@H]4C(=O)O)c3ccc(O)cc3)c[nH]c2n1 [Compound F, D-α-(5,8-Dihydro-2-methylamino-5-oxopyrido[2,3-d]pyrimidine-6-carboxamido)-p-hydroxybenzylpenicillin sodium salt]
- MIC [1]: 0.78 µg/mL
- MIC [2, 24]: 12.5 µg/mL
- MIC ([3]; NIHJJC2, Escherichia coli NIHJ JC-2, read-out: minimum inhibitory concentration (MIC)): 12.5 µg/mL
- minimum inhibitory concentration (MIC) (Escherichia coli P-140a): 25 µg/mL
- MIC (Escherichia coli P-5101 [4]): 3.13 µg/mL
- MIC [5]: 25 µg/mL
- MIC (Proteus mirabilis P-2381; [21]): 3.13 µg/mL
- MIC (Proteus morganii Kono; Proteus morganii Kono): 12.5 µg/mL
- MIC (Proteus rettgeri P-2503; [25]): 12.5 µg/mL
- MIC [6, 22]: 6.25 µg/mL
- MIC [7]: 0.78 µg/mL
- MIC [8]: 1.56 µg/mL
- MIC [9]: 1.56 µg/mL
- MIC [10, 23]: 12.5 µg/mL
- MIC (Shigella flexneri 2a): 3.13 µg/mL
- MIC [11]: 6.25 µg/mL
- MIC [12]: 0.39 µg/mL
- MIC [13]: 0.39 µg/mL
- MIC [14]: 1.56 µg/mL
- MIC [15]: < 0.1 µg/mL
- ED50 [16]: ~0.7 mg/kg
- ED50 (Escherichia coli P-5101 [17]; iv): 12 mg/kg
- ED50 (Escherichia coli P-5101 [17]; sc): 6.3 mg/kg
- ED50 ([18]; iv): 5.7 mg/kg
- ED50 ([18]; sc): 4.8 mg/kg
- antibacterial activity in vivo (in words) [19]: almost comparable
- LD50 at 168 h (in vivo; iv): 1410 mg/kg
- selectivity ratio (in vivo; iv): 248
- LD50 at 168 h (in vivo; sc): 1410 mg/kg
- selectivity ratio (in vivo; sc): 295

Compound: CC1(C)S[C@@H]2[C@H](NC(=O)[C@H](N)c3ccc(O)cc3)C(=O)N2[C@H]1C(=O)O [Compound M, D-α-Amino-p-hydroxybenzylpenicillin sodium salt]
- MIC [1]: 0.39 µg/mL
- MIC [2, 24]: > 200 µg/mL
- MIC [3, 20]: 6.25 µg/mL
- minimum inhibitory concentration (MIC) (Escherichia coli P-140a): > 200 µg/mL
- MIC (Escherichia coli P-5101 [4]): 6.25 µg/mL
- MIC [5]: 200 µg/mL
- MIC (Proteus mirabilis P-2381; P2381, Proteus mirabilis P-2381, read-out: minimum inhibitory concentration (MIC)): 1.56 µg/mL
- MIC (Proteus morganii Kono; Proteus morganii Kono): 200 µg/mL
- MIC (Proteus rettgeri P-2503; [25]): 50 µg/mL
- MIC ([6]; Pseudomonas aeruginosa No.12, read-out: minimum inhibitory concentration (MIC)): > 200 µg/mL
- MIC [7]: 200 µg/mL
- MIC [8]: 0.39 µg/mL
- MIC [9]: 0.78 µg/mL
- MIC ([10]; Serratia, IFO3736, read-out: minimum inhibitory concentration (MIC)): 50 µg/mL
- MIC (Shigella flexneri 2a): 6.25 µg/mL
- MIC [11]: 25 µg/mL
- MIC [12]: 0.1 µg/mL
- MIC [13]: 0.1 µg/mL
- MIC [14]: 0.78 µg/mL
- MIC [15]: 0.025 µg/mL
- antibacterial activity (in words) (20 strains of bacteria; Ampicillin-resistant strains): does not exhibit antibacterial activity
- antibacterial activity (in words) (20 strains of bacteria; E. coli P-140a, Klebsiella pneumonia, Enterobacter cloacae, Pseudomonas aeruginosa, Serratia marcescens): substantially ineffective
- antibacterial activity (in words) (20 strains of bacteria; bacteria of the genus Pseudomonas): substantially ineffective
- ED50 [16]: 0.34 mg/kg
- ED50 (Escherichia coli P-5101 [17]; iv): 3.2 mg/kg
- ED50 (Escherichia coli P-5101 [17]; sc): 3.4 mg/kg
- ED50 ([18]; sc): > 200 mg/kg
